From patent US20140221499A1, “NOVEL RODENT CONTROL AGENTS AND USES THEREOF” (priority 2011, published 2014)

Assays:
mouse TAAR3 = molecular target: T1, mouse TAAR3 (Mus musculus, UniProt Q5QD16); assay: TAAR3 CRE-SEAP reporter gene assay in transfected HEK293 cells; format: cell-based
T1 construct: Full Taar coding regions were cloned into pcDNA3.1-(Invitrogen); expressed in transfected cells; host or cells: HEK293
T1 sequence (Q5QD16 1-343): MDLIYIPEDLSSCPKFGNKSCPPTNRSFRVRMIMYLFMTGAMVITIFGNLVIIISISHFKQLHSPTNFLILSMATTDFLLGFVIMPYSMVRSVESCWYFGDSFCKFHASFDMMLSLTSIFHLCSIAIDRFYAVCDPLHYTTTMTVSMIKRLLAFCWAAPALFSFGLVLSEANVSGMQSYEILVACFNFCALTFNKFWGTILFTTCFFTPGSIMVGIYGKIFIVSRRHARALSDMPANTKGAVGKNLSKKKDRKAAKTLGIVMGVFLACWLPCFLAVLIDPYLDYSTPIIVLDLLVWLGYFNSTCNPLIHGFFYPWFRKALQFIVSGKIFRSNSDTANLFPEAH
Description: Reporter gene assays were performed on HEK293 cells transfected with mouse TAAR3 and CRE-SEAP.
TAAR functional assays. Reporter gene assays were performed as described (Liberles S D & Buck LB (2006) A second class of chemosensory receptors in the olfactory epithelium. Nature 442(7103):645-650) with the following minor modifications. Test urines were diluted in serum-free media containing penicillin G (100 Units/ml, Invitrogen) and streptomycin sulfate ([…], Invitrogen). SEAP activity is measured as fluorescence resulting from dephosphorylation of a substrate, 4-methylumbelliferyl phosphate. Fluorescence values were obtained using an EnVision plate reader (Perkin Elmer) and are reported directly without normalization. All TAARs, except mouse TAAR3, were expressed as fusion proteins with an N-terminal sequence of bovine rhodopsin (Krautwurst D, Yau K W, & Reed R R (1998) Identification of ligands for olfactory receptors by functional expression of a receptor library. Cell 95(7):917-926).

rTAAR8c = molecular target: T2, rTAAR8c (Rattus norvegicus, UniProt Q923Y0); assay: CRE-SEAP reporter gene assay in HEK293 cells transfected with rTAAR8c; format: cell-based; settings: FIG. 11A, functional with or without 'Rho tag', EC50 ± s.e.m., 4-parameter Hill equation
T2 construct: Full Taar coding regions were cloned into pcDNA3.1; expressed in transfected cells; host or cells: HEK293
T2 sequence (Q923Y0 1-344): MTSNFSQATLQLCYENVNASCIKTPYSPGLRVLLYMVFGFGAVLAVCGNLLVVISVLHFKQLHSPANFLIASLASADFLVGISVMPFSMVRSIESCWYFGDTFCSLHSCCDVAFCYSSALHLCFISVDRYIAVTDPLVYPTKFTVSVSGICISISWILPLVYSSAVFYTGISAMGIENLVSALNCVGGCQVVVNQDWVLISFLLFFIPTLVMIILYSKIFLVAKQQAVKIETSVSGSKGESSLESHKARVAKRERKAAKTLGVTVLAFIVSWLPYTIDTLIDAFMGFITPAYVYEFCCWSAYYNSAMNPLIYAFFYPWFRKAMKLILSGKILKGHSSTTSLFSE
Description: FIG. 11 illustrates the dose-dependent responses of TAARs to amines. HEK293 cells were cotransfected with plasmids encoding CRE-SEAP and rTAARs (a) or mTAARs (b), incubated with concentrations of ligands indicated, and assayed for reporter activity (triplicates±s.d.). EC50 values (±s.e.m, bottom right) were calculated using SigmaPlot (Systat Software) and a 4-parameter Hill equation.
The following mixes (10 μM of each indicated compounds) were tested for their ability to activate rat TAARs. Mix 1: butylamine, dibutylamine, hexylamine. Mix 2: 2-aminopentane, isoamylamine, isobutylamine, isopropylamine. Mix 3: N,N-dimethylcyclohexylamine, 1-methylindole, tryptamine, phenylethylamine. Mix 4: indole, 1-methylpyrrolidine, 1-methylpiperidine, pyrrolidine. […]
Full Taar coding regions were cloned into pcDNA3.1-(Invitrogen) with or without a 5′ DNA extension of 69 bp encoding the first 20 amino acids of bovine rhodopsin followed by a cloning linker ([…]). […] Fluorescence was measured on an EnVision plate reader (Perkin Elmer) and SEAP activity graphed as relative fluorescence of a phosphatase substrate.
Here, we set out to identify agonists for additional mouse and rat TAARs. […] Transfected cells were incubated with test chemicals, and phosphatase activity was quantified with a fluorescent substrate as a reporter for TAAR activation. […]

Structure (SMILES)	EC50 (mouse TAAR3) [µM]	reduced sensitivity of TAAR3 compared to TAAR4 (mouse TAAR3; TAAR3 vs TAAR4) [fold]	EC50 (rTAAR8c) [µM]
NCCc1ccccc1 [2-phenylethylamine]	~100	30	–
CN(C)C1CCCCC1 [N,N-DIMETHYLCYCLOHEXYLAMINE, N,N-dimethylcyclohexylamine]	–	–	0.55 ± 0.19
